Laboratory results: paper PMC5733478, “A Non-imaging High Throughput Approach to Chemical Library Screening at the Unmodified Adenosine-A3 Receptor in Living Cells” (Frontiers in Pharmacology, 2017)
Structures can show the parent of a compound that is named as a salt.

Biological target: T1, human A3AR (Homo sapiens, UniProt P0DMS8)
T1 construct: expressed in transfected cells
T1 sequence (P0DMS8 1-318): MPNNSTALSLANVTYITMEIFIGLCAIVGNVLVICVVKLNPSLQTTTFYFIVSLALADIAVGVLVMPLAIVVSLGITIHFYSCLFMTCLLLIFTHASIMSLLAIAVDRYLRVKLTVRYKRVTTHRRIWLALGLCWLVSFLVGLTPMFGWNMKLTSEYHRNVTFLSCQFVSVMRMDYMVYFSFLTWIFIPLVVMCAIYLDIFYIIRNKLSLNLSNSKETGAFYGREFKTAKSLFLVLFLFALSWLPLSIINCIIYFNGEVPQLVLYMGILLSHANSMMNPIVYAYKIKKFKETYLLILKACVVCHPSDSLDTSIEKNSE
Assay: LOPAC library primary screen: single concentration (10 μM) inhibition of 25 nM CA200645 binding, PHERAstar FS
Settings: not given

SMILES | % 25 nM CA200645 binding [%] | hit in LOPAC primary screen (inhibited the binding of CA200645 by >40%)
CC(C)c1cccc(C(C)C)c1O [Propofol] | 96.0 ± 3.0 | 
CNCCCC1c2ccccc2C=Cc2ccccc21 [Protriptyline hydrochloride] | 101.6 ± 7.3 | 
O=c1ccc2c(OCCCCc3ccccc3)c3ccoc3cc2o1 [Psora-4] | 66.4 ± 9.2 | 
NCCCCN [Putrescine dihydrochloride] | 106.2 ± 11.7 | 
NC(=O)c1cnccn1 [Pyrazinecarboxamide] | 88.9 ± 26.1 | 
CN(C)C(=O)Oc1ccc[n+](C)c1 [Pyridostigmine bromide] | 92.0 ± 6.7 | 
COc1ccc(CN(CCN(C)C)c2ccccn2)cc1 [Pyrilamine maleate] | 84.6 ± 34.1 | 
Oc1ccccc1O [Pyrocatechol] | 91.0 ± 7.4 | 
CCN(CC)CCCC(C)Nc1c2ccc(Cl)cc2nc2ccc(OC)cc12 (stereo not drawn) [Quinacrine dihydrochloride] | 98.2 ± 4.9 | 
CCCN1CCC[C@@H]2Cc3nc(N)ncc3C[C@H]21.Cl.Cl [Quinelorane dihydrochloride] | 105.7 ± 9.9 | 
C=C[C@H]1C[N@@]2CC[C@H]1C[C@@H]2[C@@H](O)c1ccnc2ccc(OC)cc12 [Quinidine sulfate] | 111.6 ± 16.6 | 
O=C(O)/C=C\C(=O)O.O=[N+]([O-])c1ccc2nc(N3CCNCC3)ccc2c1 [Quipazine, 6-nitro-, maleate] | 100.0 ± 4.7 | 
CCCN1CCC[C@H](c2cccc(O)c2)C1.Cl [R(+)-3PPP hydrochloride] | 88.4 ± 12.1 | 
Br.C=CCN1CCc2c(cc(O)c(O)c2Br)[C@@H](c2ccccc2)C1 [R(+)-6-Bromo-APB hydrobromide] | 77.8 ± 20.1 | 
C[C@@]1(C2CCCC2)Cc2cc(OCC(=O)O)c(Cl)c(Cl)c2C1=O [R(+)-IAA-94] | 95.5 ± 13.0 | 
CN1CCc2cc(Cl)c(O)cc2[C@@H](c2ccccc2)C1.Cl [R(+)-SCH-23390 hydrochloride] | 96.2 ± 12.3 | 
COc1ccc2c(c1O)-c1cccc3c1[C@@H](C2)N(C)CC3.Cl [R(-)-Apocodeine hydrochloride] | 70.5 ± 34.0 | 
C[C@H](Cc1ccccc1)Nc1ncnc2c1ncn2[C@@H]1O[C@H](CO)[C@@H](O)[C@H]1O [R(-)-N6-(2-Phenylisopropyl)adenosine] | 69.2 ± 26.4 | 
CCCN1CCc2cccc3c2[C@H]1Cc1ccc(O)c(O)c1-3.Cl [R(-)-Propylnorapomorphine hydrochloride] | 96.1 ± 7.1 | 
Br.CCCN(CCC)[C@@H]1CCc2ccc(O)cc2C1 [R-(+)-7-Hydroxy-DPAT hydrobromide] | 110.9 ± 7.0 | 
Br.CCCN(CCC)[C@@H]1CCc2cccc(O)c2C1 [R-(+)-8-Hydroxy-DPAT hydrobromide] | 83.0 ± 17.5 | 

SMILES | % 25 nM CA200645 binding [%] | hit in LOPAC primary screen (inhibited the binding of CA200645 by >40%)
C#CCN[C@H](C)Cc1ccccc1.Cl [R-(-)-Desmethyldeprenyl hydrochloride] | 101.0 ± 11.7 | 
C[C@H](Cc1ccccc1)Nc1ncnc2c1ncn2[C@@H]1O[C@H](CO)[C@@H](O)[C@H]1O [R-PIA, reference compound] |  | not identified as hits
COC1(C2=NCCN2)COc2ccccc2O1.Cl (stereo not drawn) [RX 821002 hydrochloride] | 101.0 ± 17.5 | 
O=C(c1ccc(OCCN2CCCCC2)cc1)c1c(-c2ccc(O)cc2)sc2cc(O)ccc12 [Raloxifene hydrochloride] | 90.8 ± 14.0 | 
COc1ccccc1OCC(O)CN1CCN(CC(=O)Nc2c(C)cccc2C)CC1 (stereo not drawn) [Ranolazine dihydrochloride] | 102.3 ± 13.7 | 
COC(=O)[C@H]1[C@H]2C[C@H]3c4[nH]c5ccccc5c4CCN3C[C@H]2CC[C@@H]1O [Rauwolscine hydrochloride] | 96.5 ± 8.7 | 
Nc1c(S(=O)(=O)O)cc(Nc2ccc(Nc3nc(Cl)nc(Nc4cccc(S(=O)(=O)O)c4)n3)c(S(=O)(=O)O)c2)c2c1C(=O)c1ccccc1C2=O [Reactive Blue 2] | 24.5 ± 2.7 | 
Cc1cccc(-c2[nH]ncc2-c2ccc3ncccc3n2)n1 [RepSox] | 98.5 ± 5.4 | 
COC(=O)[C@H]1[C@H]2C[C@@H]3c4[nH]c5cc(OC)ccc5c4CCN3C[C@H]2C[C@@H](OC(=O)c2cc(OC)c(OC)c(OC)c2)[C@@H]1OC [Reserpine] | 83.8 ± 14.9 | 
CC1=C(/C=C/C(C)=C/C=C/C(C)=C/C(=O)O)C(C)(C)CCC1 [Retinoic acid] | 93.6 ± 14.4 | 
NC(=O)c1ncn([C@@H]2O[C@H](CO)[C@@H](O)[C@H]2O)n1 [Ribavirin] | 103.3 ± 14.0 | 
C1COC(NC(C2CC2)C2CC2)=N1 [Rilmenidine hemifumarate] | 100.9 ± 6.4 | 
CC(NCCc1ccc(O)cc1)C(O)c1ccc(O)cc1 (stereo not drawn) [Ritodrine hydrochloride] | 99.4 ± 8.5 | 
CNc1cc(NS(=O)(=O)c2ccc(N)cc2)nc(NC)n1.Cl.Cl [Ro 04-6790 dihydrochloride] | 82.1 ± 15.5 | 
CCCN(CCC)CCc1cccc2c1CC(=O)N2 [Ropinirole hydrochloride] | 107.5 ± 15.4 | 
CC[C@H](CO)Nc1nc(NCc2ccccc2)c2ncn(C(C)C)c2n1 [Roscovitine] | 45.3 ± 8.6 | 
C=C(C)[C@H]1Cc2c(ccc3c2O[C@@H]2COc4cc(OC)c(OC)cc4[C@@H]2C3=O)O1 [Rotenone] | 92.4 ± 12.1 | 
NC(=O)c1cn(Cc2c(F)cccc2F)nn1 [Rufinamide] | 100.9 ± 12.8 | 
O=c1c2ccccc2nc2n1CCc1c-2[nH]c2ccccc12 [Rutaecarpine] | 34.3 ± 2.1 | 
N.N.N.N.N.N.N.N.N.N.N.N.N.N.[Cl-].[Cl-].[Cl-].[Cl-].[Cl-].[Cl-].[O-2].[O-2].[Ru+3].[Ru+3].[Ru+4] [Ruthenium red] | 95.4 ± 2.3 | 
c1ccc2c(c1)CC(N1CCN(c3cccc4c3OCCO4)CC1)C2 [S15535] | 97.0 ± 1.3 | 

Same assay, conditions: % of control wells (1% DMSO and 25 nM CA200645); compounds at 10 µM; […]; mean ± SD, three experiments in duplicate

SMILES | % 25 nM CA200645 binding [%]
O=c1c(O)c(-c2ccc(O)c(O)c2)oc2cc(O)cc(O)c12 [Quercetin dihydrate] | 25.2 ± 6.9

Same assay, conditions: % of control wells (1% DMSO and 25 nM CA200645); compounds at 10 µM; whole live cells expressing the A3AR; mean ± SD, three experiments in duplicate

SMILES | % 25 nM CA200645 binding [%]
Oc1ccc(/C=C/c2cc(O)cc(O)c2)cc1 [Resveratrol] | 100.3 ± 16.3
Cc1nc2sccn2c(=O)c1CCN1CCC(=C(c2ccc(F)cc2)c2ccc(F)cc2)CC1 [Ritanserin] | 79.4 ± 12.5
COc1ccc(C2CNC(=O)C2)cc1OC1CCCC1 (stereo not drawn) [Rolipram] | 98.7 ± 10.9

Same assay, conditions: compounds tested at 10 µM; % of control wells (1% DMSO and 25 nM CA200645); whole live cells expressing the A3AR; mean ± SD, three experiments in duplicate

SMILES | % 25 nM CA200645 binding [%]
CCC(=O)c1ccc2c(c1)N(CCCN(C)C)c1ccccc1S2 [Propionylpromazine hydrochloride] | 101.0 ± 0.8
C[C@@H]1C(=O)NC2=Nc3cccc(Cl)c3CN21 [Quazinone] | 93.4 ± 5.4
